{"source": "paper PMC9741104", "about": "“Uptake of Flaxseed Dietary Linusorbs Modulates Regulatory Genes Including Induction of Heat Shock Proteins and Apoptosis” (Foods, 2022)", "key": {"[1]": {"experiment": "Circular dichroism secondary structure estimate in aqueous-DMSO solution", "assay_type": "physicochemical", "settings": "CD spectra 260–200 nm, H2O/DMSO (3%, v/v), room temperature, CDNN deconvolution, triplicate", "experimental": "Circular dichroism (CD) spectroscopy was performed on LO samples using a fresh solution of aqueous-dimethylsulfoxide solution (H2O/DMSO, 3%, v/v). CD measurements were completed using a Pistar 180 spectrometer (Applied Photophysics Ltd., Leatherhead, UK). Sample measurements were conducted at room temperature using a 0.01 cm cuvette (Hellma 106-QSP), and samples were scanned between 200–260 nm at 0.5 nm increments, with a scan rate of 10 nm/min. The instrument was calibrated using (+)-10-camphorsulfonic acid (290.5 nm wavelength). Experiments were performed in triplicate and are reported as mean ± standard deviation (SD). The secondary structure content of the samples was evaluated with the CDNN CD Spectroscopy Deconvolution software version 2.0.3.188 [30]. Molar ellipticities were calculated from molecular masses of 977.26–1074.37 Da for LOs. All spectra were corrected by background subtraction of H2O/DMSO (3%, v/v)."}, "[2]": {"tested_on": "Calu-3 cells", "experiment": "Microarray analysis of apoptosis-regulating genes (Rt2 Profiler PCR Super Array)", "assay_type": "cell-based, human", "parameters": "key: +: genes over-expressed; NE: not expressed; –: genes under-expressed", "settings": "Calu-3 exposed to LOs", "experimental": "Human bronchial epithelial adenocarcinoma cell line (Calu-3) was obtained from the American Type Culture Collection (ATCC, Manassas, VA, USA). Calu-3 cell line was cultured in plastic culture flasks containing Modified Eagle’s Medium (MEM) and supplemented with 10% fetal bovine serum, glutamine (4 mM), and penicillin (100 U/mL)-streptomycin (100 μg/mL) solution. Cells were cultured to a density of 10^6 cells/mL before adding fresh media (on day 3). The cells were then grown at 37 °C under 5% CO2, and 100% humidity.\nMicroarray analysis was performed to determine LO effects on the expression of genes involved in regulating apoptosis (i.e., pro- or anti-apoptotic genes) in Calu-3 cells. These analyses were using an Rt2 Profiler PCR Super Array kit (Super Arrays Bioscience Corp., Frederick, MD, USA) following manufacturer’s instructions and were recorded using an MX3005P LightCycler (Stratagene, La Jolla, CA, USA)."}, "[3]": {"tested_on": "C. elegans", "experiment": "Lethality in nematode cultures", "assay_type": "in vivo, Caenorhabditis elegans", "settings": "100 µM, 2 h exposure"}, "[4]": {"tested_on": "breast cancer cell line MDA-MB-231", "settings": "doses lower than 10 µM; cited from earlier work"}, "[5]": {"tested_on": "HSP 70A", "experiment": "Induction of HSP 70A in nematodes (qRT-PCR)", "assay_type": "in vivo, Caenorhabditis elegans", "settings": "2 h exposure, normalized to GAPDH, three repetitions", "experimental": "Gene expression of HSP 70A in nematodes was completed as described in Saini et al. (2011). Briefly, C. elegans N2 strains were cultured in the dark and at room temperature on sterile plates (10 mm; VWR, Edmonton, AB, Canada) containing 10% bacteriological agar (Sigma-Aldrich, Oakville, ON, Canada) and autoclaved Baker’s yeast (1%, w/v). C. elegans were sub-cultured every 14 days to fresh plates. Exposure experiments began using C. elegans, which were two weeks old. These cultures were exposed for 2 h to either DMSO (negative control) or various concentrations (0.1, 1.0, 10.0, and 100.0 µM) of LOB3 dissolved in DMSO. After exposure, these organisms were then re-cultured to assess the effects of LOB3 on HSP 70A gene expression. An unamended culture medium was used as the control treatment. After treatment, cultures were centrifuged at 400× g for 10 min at 4 °C. The pellet was retained and stored at −80 °C until further analysis.\nRNeasy® Mini kits (Qiagen, Mississauga, ON, Canada) were used to extract total RNA from C. elegans lysates, according to the manufacturer’s instructions. RNA quality was confirmed and quantified using agarose gel electrophoresis and a Nano Drop® spectrophotometer (Thermo Fisher Scientific, Ottawa, ON, Canada), respectively. […] This was accomplished using a Stratagene MX3005P LightCycler (La Jolla, CA, USA). The glyceraldehyde-3-phosphate dehydrogenase gene (GAPDH; GenBank Accession No. X04818) was used as the reference housekeeping gene for qRT-PCR analyses. The primer pairs used during qRT-PCR are listed in Table 2. qRT-PCR reactions were performed using QuantiFast® SYBR® Green PCR kit (Qiagen, Mississauga, ON, Canada) following the manufacturer’s instructions. The thermocycler conditions included an initial denaturation at 95 °C for 5 min, followed by 45 cycles of denaturation at 95 °C for 30 s, annealing at 55 °C for 30 s and elongation at 60 °C for 45 s, to amplify the target gene. Relative gene expression levels were corrected against the GAPDH housekeeping gene using MXPro software. All analyses were completed in triplicate."}, "[6]": {"settings": "administered orally and intravenously, cited from earlier work", "text": "The combined characteristics of the strong immunosuppressive activity and low toxicity make LOB3 an immunosuppressive drug candidate. Other LOs and their analogs have also been investigated for their immunosuppressant activity. […] Similarly, [1–8-NαC], [1-(Rs, Ss)-MetO]-linusorb B1 (LO1OB1, also known as CLE) ..."}, "[7]": {"experiment": "LOs in pig adipose after flaxseed diet (HPLC-ToF-MS)", "settings": "pig fed diet with 15% extruded flaxseed meal; fat biopsy at 10th rib, chloroform extract, HPLC-ToF-MS molecular ions", "description": "Swine were fed a diet consisting of 15% flaxseed meal that was combined with other ingredients then extruded. Swine fat samples were taken from an 8 mm biopsy punch at the 10th rib, approximately 5 cm from the backbone [31]. The tissue samples were then extracted with chloroform and the extracts were dried, taken up in acetonitrile, and analyzed via direct loop injections using an Agilent 1100-series high-performance liquid chromatography (HPLC, Agilent, Santa Clara, CA, USA) equipped with a time-of-flight mass spectrometer (ToF-MS). Each sample extract was injected at a flow rate of 50 μL/min. The mobile phase consisted of 95% water: methanol containing 0.1% formic acid, and 5% acetonitrile."}, "[8]": {"tested_on": "cancer C6 cells", "settings": "cited from earlier work"}}, "note": "Several values for one entry are separate records, joined by “and”; a condition that tells them apart may be missing. Equal entries are not always repeated. Where two headings read alike, the source gives them in different places. Marks after values point to notes of the source that are not given here.", "data": [{"substance": "[1–8-NαC], [1-(Rs, Ss)-MetO]- linusorb B1 [LO1OB1]", "values": [{"measurement": "Antiparallel (%)", "setting": "[1]", "result": 0.00, "unit": "%"}, {"measurement": "Parallel (%)", "setting": "[1]", "result": 0.30, "unit": "%"}, {"measurement": "Random Coil (%)", "setting": "[1]", "result": 18.20, "unit": "%"}, {"measurement": "α-Helix (%)", "setting": "[1]", "result": 75.30, "unit": "%"}, {"measurement": "β-Turn (%)", "setting": "[1]", "result": 6.20, "unit": "%"}, {"measurement": "BAK1 (BCL2 antagonist/killer 1) up- or down-regulated", "setting": "[2]", "result": "NE"}, {"measurement": "BCL2 (B-cell lymphoma 2) up- or down-regulated", "setting": "[2]", "result": "– ^c"}, {"measurement": "CASP10 (Caspase 10) up- or down-regulated", "setting": "[2]", "result": "NE"}, {"measurement": "CIDEA (Cell death-inducing DFFA-like effector A) up- or down-regulated", "setting": "[2]", "result": "+"}, {"measurement": "CIDEB (Cell death-inducing DFFA-like effector B) up- or down-regulated", "setting": "[2]", "result": "+"}, {"measurement": "Fas (TNF receptor superfamily member 6) up- or down-regulated", "setting": "[2]", "result": "+"}, {"measurement": "FasL (Fas ligand) up- or down-regulated", "setting": "[2]", "result": "NE"}, {"measurement": "HRK (Harakiri) up- or down-regulated", "setting": "[2]", "result": "+"}, {"measurement": "TNF (Tumor necrosis factor) up- or down-regulated", "setting": "[2]", "result": "+"}, {"measurement": "TP53 (Tumor protein p53) up- or down-regulated", "setting": "[2]", "result": "NE"}, {"measurement": "TP53BP2 (Tumor protein p53 binding protein 2) up- or down-regulated", "setting": "[2]", "result": "+"}]}, {"substance": "[1–9-NαC], [1-(Rs, Ss)-MetO]- linusorb B2 [LO1OB2]", "values": [{"measurement": "Antiparallel (%)", "setting": "[1]", "result": 0.00, "unit": "%"}, {"measurement": "Parallel (%)", "setting": "[1]", "result": 0.40, "unit": "%"}, {"measurement": "Random Coil (%)", "setting": "[1]", "result": 0.10, "unit": "%"}, {"measurement": "α-Helix (%)", "setting": "[1]", "result": "> 75% and 98.90%"}, {"measurement": "β-Turn (%)", "setting": "[1]", "result": 0.60, "unit": "%"}, {"measurement": "BAK1 (BCL2 antagonist/killer 1) up- or down-regulated", "setting": "[2]", "result": "NE ^b"}, {"measurement": "BCL2 (B-cell lymphoma 2) up- or down-regulated", "setting": "[2]", "result": "–"}, {"measurement": "CASP10 (Caspase 10) up- or down-regulated", "setting": "[2]", "result": "+"}, {"measurement": "CIDEA (Cell death-inducing DFFA-like effector A) up- or down-regulated", "setting": "[2]", "result": "+"}, {"measurement": "CIDEB (Cell death-inducing DFFA-like effector B) up- or down-regulated", "setting": "[2]", "result": "+"}, {"measurement": "Fas (TNF receptor superfamily member 6) up- or down-regulated", "setting": "[2]", "result": "+"}, {"measurement": "FasL (Fas ligand) up- or down-regulated", "setting": "[2]", "result": "NE"}, {"measurement": "HRK (Harakiri) up- or down-regulated", "setting": "[2]", "result": "+"}, {"measurement": "TNF (Tumor necrosis factor) up- or down-regulated", "setting": "[2]", "result": "+"}, {"measurement": "TP53 (Tumor protein p53) up- or down-regulated", "setting": "[2]", "result": "+"}, {"measurement": "TP53BP2 (Tumor protein p53 binding protein 2) up- or down-regulated", "setting": "[2]", "result": "+"}]}, {"substance": "[1–9-NαC]-linusorb B3 [LOB3]", "values": [{"measurement": "Lethality", "setting": "[3]", "result": "lethal"}, {"measurement": "Cytotoxic effects", "setting": "[4]", "result": "no cytotoxic effects"}, {"measurement": "Increase in HSP 70A production", "setting": "[5]; 0.1 µM", "result": 30, "unit": "%"}, {"measurement": "Increase in HSP 70A production", "setting": "[5]; 1.0 µM", "result": 3.5, "unit": "fold"}, {"measurement": "Increase in HSP 70A production", "setting": "[5]; 10.0 µM", "result": 30, "unit": "%"}, {"measurement": "Toxicity", "setting": "[6]; mice", "result": "non-toxic"}, {"measurement": "Toxicity", "setting": "[6]; rats", "result": "non-toxic"}, {"measurement": "Antiparallel (%)", "setting": "[1]", "result": 0.00, "unit": "%"}, {"measurement": "Parallel (%)", "setting": "[1]", "result": 0.3, "unit": "%"}, {"measurement": "Random Coil (%)", "setting": "[1]", "result": 0.1, "unit": "%"}, {"measurement": "α-Helix (%)", "setting": "[1]", "result": 98.90, "unit": "%"}, {"measurement": "β-Turn (%)", "setting": "[1]", "result": 0.7, "unit": "%"}, {"measurement": "BAK1 (BCL2 antagonist/killer 1) up- or down-regulated", "setting": "[2]", "result": "+ ^a"}, {"measurement": "CASP10 (Caspase 10) up- or down-regulated", "setting": "[2]", "result": "NE"}, {"measurement": "CIDEA (Cell death-inducing DFFA-like effector A) up- or down-regulated", "setting": "[2]", "result": "NE"}, {"measurement": "CIDEB (Cell death-inducing DFFA-like effector B) up- or down-regulated", "setting": "[2]", "result": "+"}, {"measurement": "Fas (TNF receptor superfamily member 6) up- or down-regulated", "setting": "[2]", "result": "+"}, {"measurement": "FasL (Fas ligand) up- or down-regulated", "setting": "[2]", "result": "+"}, {"measurement": "HRK (Harakiri) up- or down-regulated", "setting": "[2]", "result": "NE"}, {"measurement": "TNF (Tumor necrosis factor) up- or down-regulated", "setting": "[2]", "result": "+"}, {"measurement": "TP53 (Tumor protein p53) up- or down-regulated", "setting": "[2]", "result": "+"}, {"measurement": "TP53BP2 (Tumor protein p53 binding protein 2) up- or down-regulated", "setting": "[2]", "result": "+"}, {"measurement": "Distribution to adipose tissue", "setting": "[7]", "result": "trace amounts"}, {"measurement": "Cytotoxic effects", "setting": "[8]; concentrations greater than 10.0 µM, changes in cell shape and reduction in cell numbers", "result": "cytotoxic effects were observed"}, {"measurement": "Cytotoxic effects", "setting": "[8]; doses lower than 10 µM", "result": "no cytotoxic effects"}]}]}
